Data from paper PMC11172336, “Exploring Syndecan-4 and MLP and Their Interaction in Primary Cardiomyocytes and H9c2 Cells” (Cells, 2024).
Where a SMILES comes first, the peptide text is derived from it. Where no end group is shown, it is not given here. The star is where a group is joined. Biotin = O=C1N[C@H]2[C@H](CS[C@H]2CCCCC(=O)*)N1; Ahx = NCCCCCC(=O)O

Experiments:
[1] = target: T1, recombinant 6xHis-MLP-WT (Homo sapiens, UniProt P50461); assay: Biacore surface plasmon resonance of SDC4cyt and MLP; type: binding; conditions: SPR, biotin-ahx-SDC4cyt immobilized on SA chip, 6xHis-MLP-WT injected, 1:1 Langmuir fit, n = 4
T1 construct: All MLP recombinant proteins were full length and had 6xHis tags at the N-terminus; purchased GenScript Biotech Corp
T1 sequence (P50461 1-194): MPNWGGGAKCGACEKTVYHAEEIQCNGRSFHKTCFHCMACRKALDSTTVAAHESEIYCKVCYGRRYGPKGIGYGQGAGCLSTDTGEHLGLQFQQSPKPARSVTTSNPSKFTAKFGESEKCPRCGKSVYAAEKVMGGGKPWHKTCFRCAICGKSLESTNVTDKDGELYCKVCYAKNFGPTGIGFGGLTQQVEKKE
Method: A streptavidin (SA) chip (BR1000032, Cytiva, Marlborough, MA, USA) was conditioned with three 1 min injections of 1 × Biacore running buffer (BR100826, Cytiva, Marlborough, MA, USA), and biotinylated SDC4cyt was immobilized at 133–350 resonance units (RUs). Recombinant 6xHis-MLP-WT was dialyzed into 1 × Biacore running buffer, and increasing concentrations were injected over the chip’s surface at a flow rate of 30 µL per minute for 180 s. For the different runs, concentration ranges spanned 2.9–14.6 nM, 1.2–100 nM, and 21.2–500 nM. The dissociation time was set to 600 s. Sensorgrams were analyzed using the Biacore X100 software (Version 2.0.1) with the assumption of 1:1 binding (Langmuir binding model).
The binding of SDC4cyt and MLP was further investigated with surface plasmon resonance (SPR), where a biotinylated SDC4cyt peptide was immobilized on an SA chip, and a serial dilution of recombinant 6xHis-MLP-WT protein was injected over the chip. The results were analyzed by fitting with a 1:1 interaction model (Langmuir). The dissociation equilibrium constant (kD) was 15.6 ± 7.8 nM, with an association constant (ka) of (8.7 ± 1.4) × 10^4 M^−1 s^−1 and a dissociation rate constant (kd) of (12.2 ± 5.3) × 10^−4 s^−1, indicating a strong interaction (Figure 2D). […]

[2] = system: cytoplasmic domain of syndecan-4 (SDC4cyt); assay: ELISA-based assay, wells coated with MLP peptides, overlaid with biotin-SDC4cyt; type: binding, human; conditions: for biotinylated SDC4cyt binding to mutated MLP peptide compared with MLP-WT peptide: 10 µg 30-mer peptide coated, SDC4cyt normalized to SDC4scram, related to MLP-WT (100%), n = 16, Mann-Whitney U; for biotin-SDC4cyt binding to 30 amino acid-long overlapping MLP-WT peptides: 10 µg peptide coated, biotinylated peptide 2-5 µM, 2 h 37 °C, absorbance 450 nm, normalized to SDC4scram, n = 12-28
Method: (§1) 96-well ELISA microplates were coated with 10 µg of WT or mutated human 6xHis-MLP recombinant proteins or 10 µg of MLP peptides in PBS, and rotated at 4 °C overnight. Each well was rinsed with 0.05% Tween-20 in PBS (PBS-T) and blocked with 0.5% gelatin (G-1890, Sigma Merck, Darmstadt, Germany) for one hour at room temperature before incubation with the given biotinylated peptides at a final concentration of 2–5 µM for two hours at 37 °C with gentle agitation. Each well was then thoroughly washed with PBS-T five times before incubation with 100 µL of Biotin-HRP (A0185, Sigma Merck, Darmstadt, Germany) for 30 min at room temperature with gentle agitation. Each well was then washed with PBS-T 5 times before incubation with 100 µL of Ultra TMB substrate solution (34028, Thermo Fisher Scientific, Waltham, MA, USA) for 15–30 min at room temperature with gentle agitation to develop a blue color signal. The reaction was stopped with 100 µL of 2 M hydrochloric acid (HCl) per well (yellow color development). The absorbance of each well was read at 450 nm (Hidex sense multimodal microplate reader, Åbo, Finland).
We next aimed to identify the syndecan-4-MLP-binding domain(s). […]
Multiple human mutations in MLP are associated with hypertrophic cardiomyopathy (HCM) or dilated cardiomyopathy (DCM) (illustrated in Figure 2E). […] To test whether syndecan-4 binding to MLP was affected by any of the HCM- or DCM-associated mutations, we used an ELISA-based assay, where wells were coated with WT or mutated MLP peptide sequences.

[3] = system: human MLP; assay: Peptide array overlay of MLP 20-mers with biotinylated peptide; type: binding; conditions: 20-mers with 3 amino acid offset, overlay overnight at 4 °C, n = 3
Method: Human, rat, and mouse MLP were synthesized as overlapping 20-mers with three amino acid offsets onto cellulose membranes by an automated MultiPep peptide synthesizer (INTAVIS Bioanalytical instruments AG, Tübingen, Germany). After blocking, membranes were incubated with a biotin-ahx-SDC4cyt (SDC4cyt) peptide, a scrambled biotin-ahx-SDC4cyt (SDC4scram), a custom-made MLP antibody (#R06991, GenScript Biotech Corp, Piscataway, NJ, USA), or a commercially available MLP antibody (sc-166930, Santa Cruz, Dallas, TX, USA) overnight at 4 °C. The remaining consequent steps were identical to those performed for immunoblotting, as described further below.
We next aimed to identify the syndecan-4-MLP-binding domain(s). A biotinylated peptide covering the cytoplasmic domain of syndecan-4 (SDC4cyt) was overlaid onto 20’mer overlapping peptides covering the full length of human MLP.

[4] = system: recombinant 6xHis-MLP; assay: ELISA-based MLP self-association assay, coated recombinant 6xHis-MLP overlaid with biotinylated MLP-WT peptides; type: binding, human; conditions: 10 µg protein coated; biotinylated peptide 2-5 µM; PBS-only wells subtracted; n = 8
Method: as §1
To more precisely map the sites of self-association in MLP, an ELISA-based screening method was used. Full-length recombinant 6xHis-MLP-WT protein was coated into wells and overlayed with biotinylated overlapping MLP-WT peptides, together representing the full-length MLP sequence. […] Furthermore, to test whether mutations could affect self-association, wells were instead coated with mutated recombinant 6xHis-MLP proteins and overlayed with the biotinylated MLP-WT peptides, mimicking a heterozygous interaction. Compared to the WT recombinant protein, MLP peptides aa 50–79 and 125–154 bound weaker to most of the mutated MLP recombinant proteins, except for the HCM-associated L44P (at aa 125–154) and C58G mutations (at aa 50–79 and […]) (Figure 5D, left and right panel). A larger increase in N- and C-terminal binding was also observed for C58G.

CC[C@H](C)[C@H](NC(=O)[C@@H]1CCCN1C(=O)[C@H](CCCCN)NC(=O)[C@H](CCCCN)NC(=O)CNC(=O)[C@H](CC(C)C)NC(=O)[C@H](CC(=O)O)NC(=O)[C@H](Cc1ccc(O)cc1)NC(=O)[C@H](CO)NC(=O)CNC(=O)[C@H](CCC(=O)O)NC(=O)[C@H](CC(=O)O)NC(=O)[C@H](CCCCN)NC(=O)[C@H](CCCCN)NC(=O)[C@H](CCCCN)NC(=O)[C@H](CCSC)NC(=O)[C@H](CCCNC(=N)N)NC(=O)CCCCCNC(=O)CCCC[C@@H]1SC[C@@H]2NC(=O)N[C@@H]21)C(=O)N[C@@H](Cc1ccc(O)cc1)C(=O)N[C@@H](CCCCN)C(=O)N[C@@H](CCCCN)C(=O)N[C@@H](C)C(=O)N1CCC[C@H]1C(=O)N[C@H](C(=O)N[C@@H](CC(N)=O)C(=O)N[C@@H](CCC(=O)O)C(=O)N[C@@H](Cc1ccccc1)C(=O)N[C@@H](Cc1ccc(O)cc1)C(=O)N[C@@H](C)C(=O)O)[C@@H](C)O [SDC4cyt] ({Biotin-Ahx}-RMKKKDEGSYDLGKKPIYKKAPTNEFYA-OH)
kon ([1]; read-out: association constant (ka)): 87000 M⁻¹ s⁻¹ | koff ([1]; read-out: dissociation rate constant (kd)): 0.00122 s⁻¹

AAHERGIYCKVCYGRRYGPKGIGYGQGAGC [MLP-S54R,E55G, 30-mer human MLP peptide with S54R,E55G mutation]
biotinylated SDC4cyt binding to mutated MLP peptide compared with MLP-WT peptide [2]: significantly weaker

AAHESEIYCKVCYGCRYGPKGIGYGQGAGC [MLP-R64C, 30-mer human MLP peptide with R64C mutation]
biotinylated SDC4cyt binding to mutated MLP peptide compared with MLP-WT peptide [2]: tendency of reduced binding

AAHESEIYCKVCYGRRYGPKGIRYGQGAGC [MLP-G72R, 30-mer human MLP peptide with G72R mutation]
biotinylated SDC4cyt binding to mutated MLP peptide compared with MLP-WT peptide [2]: tendency of reduced binding

AAHESEIYCKVCYGRRYGPRGIGYGQGAGC [MLP-K69R, 30-mer human MLP peptide with K69R mutation]
biotinylated SDC4cyt binding to mutated MLP peptide compared with MLP-WT peptide [2]: tendency of reduced binding

CNGRSFHKTCFHCMACRKALDRTTVAAHES [MLP-S46R, 30-mer human MLP peptide with S46R mutation]
biotinylated SDC4cyt binding to mutated MLP peptide compared with MLP-WT peptide [2]: significantly weaker

CNGRSFHKTCFHCMACRKAPDSTTVAAHES [MLP-L44P, 30-mer human MLP peptide with L44P mutation]
biotinylated SDC4cyt binding to mutated MLP peptide compared with MLP-WT peptide [2]: significantly weaker

GTKYPKMDRGKLFKYKAKPEDNESAYIK [SDC4scram]
binding to 20-mer overlapping human MLP peptides on membrane [3]: did not recognize any human MLP sequence

MLP-WT peptide aa 25–54: 30 amino acid-long overlapping MLP-WT peptide, amino acids 25–54 (CNGRSFHKTCFHCMACRKALDSTTVAAHES)
biotin-SDC4cyt binding to 30 amino acid-long overlapping MLP-WT peptides [2]: binding was confirmed

MLP-WT peptide aa 50–79: 30 amino acid-long overlapping MLP-WT peptide, amino acids 50–79, with or without N-terminal biotin (AAHESEIYCKVCYGRRYGPKGIGYGQGAGC)
binding of biotinylated MLP-WT peptide to full-length recombinant 6xHis-MLP-WT (self-association) [4]: strongest binding | biotin-SDC4cyt binding to 30 amino acid-long overlapping MLP-WT peptides [2]: binding was confirmed

MLP-WT peptide aa 100–129: 30 amino acid-long overlapping MLP-WT peptide, amino acids 100–129, with or without N-terminal biotin (RSVTTSNPSKFTAKFGESEKCPRCGKSVYA)
binding of biotinylated MLP-WT peptide to full-length recombinant 6xHis-MLP-WT (self-association) [4]: Minimal binding | biotin-SDC4cyt binding to 30 amino acid-long overlapping MLP-WT peptides [2]: binding was confirmed

MLP-WT peptide aa 125–154: 30 amino acid-long overlapping MLP-WT peptide, amino acids 125–154, with or without N-terminal biotin
binding of biotinylated MLP-WT peptide to full-length recombinant 6xHis-MLP-WT (self-association) [4]: strongest binding | biotin-SDC4cyt binding to 30 amino acid-long overlapping MLP-WT peptides [2]: binding was confirmed

MLP-WT peptide aa 165–194: biotinylated 30-mer MLP-WT peptide, amino acids 165–194 (Biotin-ELYCKVCYAKNFGPTGIGFGGLTQQVEKKE; cysteine pairing not given here)
binding of biotinylated MLP-WT peptide to full-length recombinant 6xHis-MLP-WT (self-association) [4]: Minimal binding

MPNRGGGAKCGACEKTVYHAEEIQCNGRSF [MLP-W4R, 30-mer human MLP peptide with W4R mutation]
biotinylated SDC4cyt binding to mutated MLP peptide compared with MLP-WT peptide [2]: did not alter the binding
